Experimental data from US5037828A, “Piperazine derivatives, uses thereof and pharmaceutical compositions containing them” (Boehringer Mannheim GmbH, priority 1989, dated 1991).

What was measured:
[1] = system: isolated rat aortic strips; experiment: In vitro vasorelaxation of isolated rat aortic strips precontracted with noradrenaline; settings: 25 min, 3 × 10^-6 M, noradrenaline 10^-5 M precontraction, end of 25 min incubation, mean of 4-6 experiments
Method: 2. In vitro investigations were performed on isolated rat aortic strips precontracted with noradrenaline (10^-5 M). The test compounds were added to the bath solution at concentrations of 3×10^-6 M in order to test for vasorelaxation. The relaxation was evaluated at the end of an incubation period of 25 min. High values indicate a strong vasorelaxing effect.

[2] = system: conscious spontaneously hypertensive rats; experiment: Blood pressure lowering activity in conscious spontaneously hypertensive rats; type: in vivo, rat; settings: 10 mg/kg i.v.; 15 min after administration; mean arterial blood pressure; mean of 4-6 experiments
Method: 3. The blood pressure lowering activity of the test compounds was investigated in conscious spontaneously hypertensive rats. The blood pressure response to the test compounds was evaluated by means of continuous monitoring of the mean arterial blood pressure via an implanted catheter, electromagnetic transducer and a direct recording system. The test compounds were injected at a dose of 10 mg/kg i.v. and the blood pressure response was determined 15 min after administration.

[3] = molecular target: α1 -receptor; experiment: Receptor binding study, displacement of tritium-labeled prazosin in brain membrane homogenates; settings: mean of 4-6 experiments, read-out: α1 -receptor affinity IC50
Method: 1. The affinities of the compounds were studied in receptor binding studies using prazosin as tritium-labeled ligand. The investigations were performed in brain membrane homogenates. The affinity was expressed as IC50 -value (the IC50 -value is the concentration in nmol/l which displaces 50% of the labeled ligand). Low values indicate a high affinity.

[4] = system: anaphylactoid reactions in rats induced by dextran; settings: in words, U.S. Pat. No. 3,997,666; cited from earlier work
[5] = in words; U.S. Pat. No. 3,997,666; cited from earlier work

| IC50 [3] | Structure (SMILES) | inhibition at 3 µM [1] | blood pressure decrease [2] | inhibition of anaphylactoid reactions induced by dextran [4] | antihypertensive properties [5] |
| --- | --- | --- | --- | --- | --- |
| 52.7 nM | COc1ccccc1N1CCN(CC(O)COc2ccc(O)c3ccccc23)CC1 (centres unmarked) [Example 3, 1-(2-Methoxyphenyl)-4-[3-(4-hydroxynaphth-1-yloxy)-2-hydroxypropyl]-piperazine] | 85% | 48 mmHg |  |  |
| 235 nM | COc1ccccc1N1CCN(CC(O)COc2cccc3ccccc23)CC1 (centres unmarked) [naftopidil, 1(2-methoxyphenyl)-4-/3-(naphth-1-yloxy)-2-hydroxypropyl/-piperazine] | 53% | 31 mmHg | inhibits anaphylactoid reactions in rats induced by dextran | possesses antihypertensive properties |
